Source: patent publication US9522920B2, “Bromodomain inhibitors and uses thereof” (Constellation Pharmaceuticals, Inc., priority 2010, dated 2016)
Read-outs that look alike come from different tables or passages of the source.

Legend:
[1] = system: IL-6 secretion; experiment: Cell-based IL-6 quantification assay (ELISA, Mesoscale) in LPS-stimulated THP-1 cells; settings: read-out: IL6
Protocol: 100,000 THP-1 cells were seeded in RPMI1640-10% FBS in 96-well plates. LPS (E. Coli Invitrogen) in RPMI-10% FBS at a final concentration of 4 μg/mL was added to the wells and the cells are then incubated in the presence of various concentrations of compounds for 16 h. Plates are spun ([…], 5 min), an aliquot of 25 uL supernatant is transferred in to an ELISA plate (Mesoscale technology, MSD) and the detection of IL-6 is performed using manufacturer's instructions. The amount of cells in each well is assessed using CellTiter-Glo® (Promega). The ratio of ELISA value/CellTiter-Glo value is used to calculate the percent of inhibition of IL-6 secretion.

[2] = system: MYC mRNA; experiment: cMyc RNA quantification assay (QuantiGene) in Raji cells; assay type: cell-based; settings: 4 h
Protocol: MV4:11 (AML) or Raji (Burkitt's lymphoma) cells were seeded in a 96-well plate and incubated in the presence of various concentrations of compounds for 4 h. Relative mRNA levels were quantitated by using QuantiGene 2.0 assay (Affymetrix) according to the manufacturer's recommendation. Signals were detected by using an Envision plate reader (Perkin-Elmer). Biological duplicates were averaged and normalized to vehicle (DMSO) control to calculate percent MYC mRNA levels.

[3] = biological target: T1, BRD4(BD1) (Homo sapiens, UniProt O60885); experiment: BRD4 AlphaLisa binding assay (Alphascreen)
T1 construct: His; made in house
Protocol: Specifically, in a 384 well ProxiPlate BRD4(BD1) (30 nM final) was combined with peptide (200 nM final) in 40 mM HEPES (pH 7.0), 40 mM NaCl, 1 mM DTT, 0.01% (w/v) BSA, and 0.008% (w/v) Brij-35 either in the presence of DMSO (final 1.2% DMSO) or compound dilution series in DMSO. After 20 minute incubation at room temperature Alpha streptavidin donor beads and AlphaLisa anti-Flag acceptor beads were added to a final concentration of 10 ug/mL each. After three hours equilibration plates were read on an Envision instrument and IC50s calculated using a four parameter non-linear curve fit.

[4] = Homo sapiens, Table 7, Raji (Burkitt's lymphoma) cells
[5] = Table 6, BRD4(BD1) 30 nM, H4-tetraacetyl peptide 200 nM, read-out: BRD4 Alphascreen IC50
[6] = Table 7, THP-1 cells, LPS 4 μg/mL, 16 h, normalised to CellTiter-Glo
[7] = Table 7, Raji (Burkitt's lymphoma) cells
[8] = Homo sapiens, THP-1, 16 h, Table 7, THP-1 cells, LPS 4 μg/mL, 16 h, normalised to CellTiter-Glo
[9] = Homo sapiens, THP-1, 16 h, Table 14, THP-1 cells, LPS, 16 h
[10] = Homo sapiens, Table 14, Raji cells
[11] = Table 14, BRD4 AlphaLisa Binding Assay, read-out: Alpha screen

Compound | IC50 [2, 4] [nM] | IC50 [3, 5] [nM] | IC50 [1, 6] [nM] | IC50 [2, 7] [nM] | IC50 [1, 8] [nM] | other results
Cc1noc2c1-c1ccnc(N)c1C(c1ccc(Cl)cc1)=NC2 [Compound 172, 6-(4-Chlorophenyl)-1-methyl-4H-isoxazolo[5,4-c]pyrido[4,3-e]azepin-7-amine] | 500 to 1000 | < 500 | – | – | – | IC50 ([1]; Homo sapiens, THP-1, 16 h): < 500 nM
CCNC(=O)C[C@@H]1N=C(c2ccc(C#N)cc2)c2cc(Cl)ccc2-c2c(C)noc21 [Compound 143] | – | < 500 | < 500 | 500 to 1000 | – | –
Cc1noc2c1-c1cccc(Cl)c1C(c1ccc(C#N)cc1)=N[C@H]2CC(N)=O [Compound 140] | – | < 500 | < 500 | < 500 | – | –
COc1cccc(C2=N[C@@H](CC(N)=O)c3onc(C)c3-c3ccccc32)c1 [Compound 147] | – | < 500 | < 500 | 500 to 1000 | – | –
Cc1noc2c1-c1sc(C)c(C)c1C(c1ccc(F)cc1)=NC2CC(N)=O (stereo not drawn) [Compound 109] | < 500 | < 500 | – | – | < 500 | –
CCNc1nccc2c1C(c1ccc(Cl)cc1)=NCc1onc(C)c1-2 [Compound 174, 6-(4-Chlorophenyl)-N-ethyl-1-methyl-4H-isoxazolo[5,4-c]pyrido[4,3-e]azepin-7-amine] | 500 to 1000 | < 500 | – | – | < 500 | –
Cc1noc2c1-c1ccc(OC(F)(F)F)cc1C(c1ccc(Cl)cc1)=N[C@H]2CC(N)=O [Compound 197] | – | – | – | – | – | IC50 [1, 9]: < 500 nM; IC50 [2, 10]: < 500 nM; IC50 [3, 11]: < 500 nM
Cc1cccc2c1C(c1ccncc1)=N[C@@H](CC(N)=O)c1onc(C)c1-2 [Compound 131] | – | < 500 | < 500 | < 500 | – | –
CCNC(=O)C[C@@H]1N=C(c2ccc(Cl)cc2)c2ccccc2-c2c(C)noc21 [Compound 159, 2-((4S)-6-(4-chlorophenyl)-1-methyl-4H-benzo[c]isoxazolo[4,5-e]azepin-4-yl)-N-ethylacetamide] | < 500 | < 500 | – | – | < 500 | –
Cc1noc2c1-c1sc(C)c(C)c1C(c1cscn1)=N[C@H]2CC(N)=O [Compound 198] | – | – | – | – | – | IC50 [1, 9]: < 500 nM; IC50 [2, 10]: 500 to 1000 nM; IC50 [3, 11]: < 500 nM
Cc1noc2c1-c1sc(C)c(C)c1C(c1ccc(N)nc1)=NC2CC(N)=O (stereo not drawn) [Compound 102] | < 500 | < 500 | – | – | < 500 | –
Cc1noc2c1-c1sc(C)c(C)c1C(c1ccc(Cl)cc1)=N[C@H]2Cc1ncc[nH]1 [Compound 187, (6S)-6-((1H-imidazol-2-yl)methyl)-4-(4-chlorophenyl)-2,3,9-trimethyl-6H-isoxazolo[5,4-c]thieno[2,3-e]azepine] | > 1000 | < 500 | – | – | – | IC50 ([1]; Homo sapiens, THP-1, 16 h): > 1000 nM
Cc1noc2c1-c1sc(C)c(C)c1C(c1ccc(C(N)=O)cc1)=NC2CC(N)=O (stereo not drawn) [Compound 116] | < 500 | < 500 | – | – | < 500 | –
Cc1noc2c1-c1ccc(Cl)cc1C(c1ccc(Cl)cc1)=N[C@H]2CC(N)=O [Compound 141] | – | < 500 | < 500 | > 1000 | – | –
CCNC(=O)C[C@@H]1N=C(c2ccc(C#N)cc2)c2ccccc2-c2c(C)noc21 [Compound 149] | – | < 500 | < 500 | < 500 | – | –
Cc1cccc2c1C(c1ccc(Cl)cn1)=N[C@@H](CC(N)=O)c1onc(C)c1-2 [Compound 133] | – | < 500 | < 500 | 500 to 1000 | – | –
CCNC(=O)CC1N=C(c2ccc(C#N)cc2)c2c(sc(C)c2C)-c2c(C)noc21 (stereo not drawn) [Compound 113] | < 500 | < 500 | – | – | < 500 | –
Cc1noc2c1-c1ccccc1C(N1CCOCC1)=N[C@H]2CC(N)=O [Compound 152] | > 1000 | > 1000 | – | – | > 1000 | –
Cc1noc2c1-c1ccc(Cl)cc1C(c1ccc(C(F)(F)F)cc1)=N[C@H]2CC(=O)O [Compound 200] | – | – | – | – | – | IC50 [1, 9]: > 1000 nM; IC50 [2, 10]: > 1000 nM; IC50 [3, 11]: > 1000 nM
